Test results as given in PMC9090415, “Discovery of small molecule inhibitors of Plasmodium falciparum apicoplast DNA polymerase” (Journal of Enzyme Inhibition and Medicinal Chemistry, 2022).

Molecular target: P. falciparum apicoplast DNA polymerase (Pf-apPOL) (Plasmodium falciparum, UniProt Q8ILY1)
Experiment: Fluorescence-based high-throughput DNA polymerase assay (molecular beacon), primary screen and dose-response
Assay type: biochemical
Summary of the method: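 Single-point screening used 10 µM compound with 20 nM polymerase, 20 nM hairpin substrate and 6 µM dNTPs for 90 min at 25 °C. Confirmatory titrations (2.5–80 µM) followed fluorescence at three times, and IC50 was derived from a fit including a cooperativity term n.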

Chain of P. falciparum apicoplast DNA polymerase (Pf-apPOL) (Q8ILY1 entry or part of it): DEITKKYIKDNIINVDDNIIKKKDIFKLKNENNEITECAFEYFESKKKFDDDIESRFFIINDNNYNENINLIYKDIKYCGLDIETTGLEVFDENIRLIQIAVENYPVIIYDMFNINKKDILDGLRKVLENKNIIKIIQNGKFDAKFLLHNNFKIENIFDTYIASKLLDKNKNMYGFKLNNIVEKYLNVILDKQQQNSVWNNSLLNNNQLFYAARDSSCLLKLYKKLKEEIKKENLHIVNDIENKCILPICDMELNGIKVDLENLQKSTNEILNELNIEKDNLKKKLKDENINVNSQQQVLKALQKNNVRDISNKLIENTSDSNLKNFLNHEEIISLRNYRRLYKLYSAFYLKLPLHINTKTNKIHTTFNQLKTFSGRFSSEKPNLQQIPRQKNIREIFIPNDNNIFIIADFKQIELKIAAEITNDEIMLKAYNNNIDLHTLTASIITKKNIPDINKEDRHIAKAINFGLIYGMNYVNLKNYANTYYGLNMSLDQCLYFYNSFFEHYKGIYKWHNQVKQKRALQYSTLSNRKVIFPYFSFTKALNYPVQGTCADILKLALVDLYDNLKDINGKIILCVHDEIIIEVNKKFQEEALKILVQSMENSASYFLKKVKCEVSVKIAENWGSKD

**Q.** How did the “DNA Pol” value (186 hits, value of the hit list (primary screen); unit not given; 90 min, 10 µM) turn out when `Cc1ncc(CSc2nc(C(C)(C)C)cs2)c(CO)c1O` [KU0264007] was run?
**A.** 70

**Q.** And the “% inhibition Apo pol 10'” value (DRC-1; 10'; concentration 2.5)?
**A.** 0.8986%

**Q.** What about the “% inhibition Apo pol 10'” value (DRC-1; 10'; concentration 5) of the same compound?
**A.** 5.699%

**Q.** What about the “% inhibition Apo pol 10'” value (DRC-1; 10'; concentration 10) of the same compound?
**A.** 22.1813%

**Q.** And the “% inhibition Apo pol 10'” value (DRC-1; 10'; concentration 20)?
**A.** 37.8368%

**Q.** And the “% inhibition Apo pol 10'” value (DRC-1; 10'; concentration 40)?
**A.** 57.9296%

**Q.** What about the “% inhibition Apo pol 10'” value (DRC-1; 10'; concentration 80) of the same compound?
**A.** 69.8809%

**Q.** What about the “% inhibition Apol 90'” value (DRC-1; 90'; concentration 2.5) of the same compound?
**A.** -0.5136%

**Q.** What about the “% inhibition Apol 90'” value (DRC-1; 90'; concentration 5) of the same compound?
**A.** -0.3111%

**Q.** And the “% inhibition Apol 90'” value (DRC-1; 90'; concentration 10)?
**A.** 8.991%

**Q.** And the “% inhibition Apol 90'” value (DRC-1; 90'; concentration 20)?
**A.** 19.9803%

**Q.** And the “% inhibition Apol 90'” value (DRC-1; 90'; concentration 40)?
**A.** 38.5024%

**Q.** And the “% inhibition Apol 90'” value (DRC-1; 90'; concentration 80)?
**A.** 54.4417%

**Q.** And the “% inhibition apPOL 180'” value (DRC-1; 180'; concentration 2.5)?
**A.** -1.351%

**Q.** And the “% inhibition apPOL 180'” value (DRC-1; 180'; concentration 5)?
**A.** -5.176%

**Q.** What about the “% inhibition apPOL 180'” value (DRC-1; 180'; concentration 10) of the same compound?
**A.** 0.78%

**Q.** What about the “% inhibition apPOL 180'” value (DRC-1; 180'; concentration 20) of the same compound?
**A.** 8.562%

**Q.** What about the “% inhibition apPOL 180'” value (DRC-1; 180'; concentration 40) of the same compound?
**A.** 22.9628%

**Q.** And the “% inhibition apPOL 180'” value (DRC-1; 180'; concentration 80)?
**A.** 39.37%

**Q.** What about the “% inhibition Apo pol 5'” value (DRC-2, 5', concentration 2.5) of the same compound?
**A.** 6.56%

**Q.** What about the “% inhibition Apo pol 5'” value (DRC-2, 5', concentration 5) of the same compound?
**A.** 10%

**Q.** What about the “% inhibition Apo pol 5'” value (DRC-2, 5', concentration 10) of the same compound?
**A.** 24%

**Q.** And the “% inhibition Apo pol 5'” value (DRC-2, 5', concentration 20)?
**A.** 37%

**Q.** What about the “% inhibition Apo pol 5'” value (DRC-2, 5', concentration 40) of the same compound?
**A.** 45%

**Q.** What about the “% inhibition Apo pol 5'” value (DRC-2, 5', concentration 80) of the same compound?
**A.** 50%

**Q.** What about the “% inhibition Apol 40'” value (DRC-2, 40', concentration 2.5) of the same compound?
**A.** 4%

**Q.** And the “% inhibition Apol 40'” value (DRC-2, 40', concentration 5)?
**A.** 6.47%

**Q.** What about the “% inhibition Apol 40'” value (DRC-2, 40', concentration 10) of the same compound?
**A.** 20%

**Q.** What about the “% inhibition Apol 40'” value (DRC-2, 40', concentration 20) of the same compound?
**A.** 35%

**Q.** And the “% inhibition Apol 40'” value (DRC-2, 40', concentration 40)?
**A.** 47%

**Q.** What about the “% inhibition Apol 40'” value (DRC-2, 40', concentration 80) of the same compound?
**A.** 61%

**Q.** And the “% inhibition ApPOL 90'” value (DRC-2, 90', concentration 2.5)?
**A.** 1.8%

**Q.** And the “% inhibition ApPOL 90'” value (DRC-2, 90', concentration 5)?
**A.** 2.55%

**Q.** What about the “% inhibition ApPOL 90'” value (DRC-2, 90', concentration 10) of the same compound?
**A.** 14%

**Q.** What about the “% inhibition ApPOL 90'” value (DRC-2, 90', concentration 20) of the same compound?
**A.** 28%

**Q.** And the “% inhibition ApPOL 90'” value (DRC-2, 90', concentration 40)?
**A.** 43%

**Q.** And the “% inhibition ApPOL 90'” value (DRC-2, 90', concentration 80)?
**A.** 62%

**Q.** And the “% inhibition apPOL 180'” value (DRC-2, 180', concentration 2.5)?
**A.** -3%

**Q.** What about the “% inhibition apPOL 180'” value (DRC-2, 180', concentration 5) of the same compound?
**A.** -4.6%

**Q.** What about the “% inhibition apPOL 180'” value (DRC-2, 180', concentration 10) of the same compound?
**A.** 2.58%

**Q.** What about the “% inhibition apPOL 180'” value (DRC-2, 180', concentration 20) of the same compound?
**A.** 14%

**Q.** And the “% inhibition apPOL 180'” value (DRC-2, 180', concentration 40)?
**A.** 30%

**Q.** What about the “% inhibition apPOL 180'” value (DRC-2, 180', concentration 80) of the same compound?
**A.** 58%

**Q.** What about the “% inhibition ApPOL 90'” value (DRC-2; 90'; concentration 10) of the same compound?
**A.** 14%

**Q.** What about the “% inhibition apPOL 180'” value (DRC-2; 180'; concentration 20) of the same compound?
**A.** 14%

**Q.** And the “DNA Pol” value (primary screen value, 'DNA Pol' only; 90 min, 10 µM)?
**A.** 70

**Q.** `CC1=NNC(=O)C1Oc1ccc(Cl)cc1Cl` (stereo not drawn) [KU0265591] was tested. Which “DNA Pol” value ('DNA Pol'; screening value, unit not given; 90 min, 10 µM) did it give?
**A.** 75

**Q.** What about the “% inhibition Apo pol 10'” value (DRC-1; 10'; concentration 2.5) of the same compound?
**A.** 8.365%

**Q.** What about the “% inhibition Apo pol 10'” value (DRC-1; 10'; concentration 5) of the same compound?
**A.** 10.5259%

**Q.** What about the “% inhibition Apo pol 10'” value (DRC-1; 10'; concentration 10) of the same compound?
**A.** 21.6096%

**Q.** And the “% inhibition Apo pol 10'” value (DRC-1; 10'; concentration 20)?
**A.** 39.4478%

**Q.** What about the “% inhibition Apo pol 10'” value (DRC-1; 10'; concentration 40) of the same compound?
**A.** 60.3328%

**Q.** And the “% inhibition Apo pol 10'” value (DRC-1; 10'; concentration 80)?
**A.** 74.8276%

**Q.** What about the “% inhibition Apol 90'” value (DRC-1; 90'; concentration 2.5) of the same compound?
**A.** -1.52%

**Q.** What about the “% inhibition Apol 90'” value (DRC-1; 90'; concentration 5) of the same compound?
**A.** -3.728%

**Q.** What about the “% inhibition Apol 90'” value (DRC-1; 90'; concentration 10) of the same compound?
**A.** 5.588%

**Q.** What about the “% inhibition Apol 90'” value (DRC-1; 90'; concentration 20) of the same compound?
**A.** 19.9514%

**Q.** And the “% inhibition Apol 90'” value (DRC-1; 90'; concentration 40)?
**A.** 37.9721%

**Q.** And the “% inhibition Apol 90'” value (DRC-1; 90'; concentration 80)?
**A.** 53.1645%

**Q.** What about the “% inhibition apPOL 180'” value (DRC-1; 180'; concentration 2.5) of the same compound?
**A.** -5.173%

**Q.** And the “% inhibition apPOL 180'” value (DRC-1; 180'; concentration 5)?
**A.** -9.633%

**Q.** What about the “% inhibition apPOL 180'” value (DRC-1; 180'; concentration 10) of the same compound?
**A.** -1.598%

**Q.** And the “% inhibition apPOL 180'” value (DRC-1; 180'; concentration 20)?
**A.** 9.166%

**Q.** And the “% inhibition apPOL 180'” value (DRC-1; 180'; concentration 40)?
**A.** 27.6068%

**Q.** What about the “% inhibition apPOL 180'” value (DRC-1; 180'; concentration 80) of the same compound?
**A.** 41.8944%

**Q.** And the “% inhibition Apo pol 5'” value (DRC-2, 5', concentration 2.5)?
**A.** 10%

**Q.** What about the “% inhibition Apo pol 5'” value (DRC-2, 5', concentration 5) of the same compound?
**A.** 12%

**Q.** What about the “% inhibition Apo pol 5'” value (DRC-2, 5', concentration 10) of the same compound?
**A.** 24%

**Q.** What about the “% inhibition Apo pol 5'” value (DRC-2, 5', concentration 20) of the same compound?
**A.** 32%

**Q.** And the “% inhibition Apo pol 5'” value (DRC-2, 5', concentration 40)?
**A.** 45%

**Q.** What about the “% inhibition Apo pol 5'” value (DRC-2, 5', concentration 80) of the same compound?
**A.** 52%

**Q.** And the “% inhibition Apol 40'” value (DRC-2, 40', concentration 2.5)?
**A.** 5%

**Q.** And the “% inhibition Apol 40'” value (DRC-2, 40', concentration 5)?
**A.** 4.74%

**Q.** And the “% inhibition Apol 40'” value (DRC-2, 40', concentration 10)?
**A.** 15%

**Q.** And the “% inhibition Apol 40'” value (DRC-2, 40', concentration 20)?
**A.** 26%

**Q.** What about the “% inhibition Apol 40'” value (DRC-2, 40', concentration 40) of the same compound?
**A.** 42%

**Q.** And the “% inhibition Apol 40'” value (DRC-2, 40', concentration 80)?
**A.** 53%

**Q.** And the “% inhibition ApPOL 90'” value (DRC-2, 90', concentration 2.5)?
**A.** 1.69%

**Q.** What about the “% inhibition ApPOL 90'” value (DRC-2, 90', concentration 5) of the same compound?
**A.** -0.164%

**Q.** What about the “% inhibition ApPOL 90'” value (DRC-2, 90', concentration 10) of the same compound?
**A.** 9%

**Q.** What about the “% inhibition ApPOL 90'” value (DRC-2, 90', concentration 20) of the same compound?
**A.** 20%

**Q.** And the “% inhibition ApPOL 90'” value (DRC-2, 90', concentration 40)?
**A.** 37%

**Q.** What about the “% inhibition ApPOL 90'” value (DRC-2, 90', concentration 80) of the same compound?
**A.** 51%

**Q.** And the “% inhibition apPOL 180'” value (DRC-2, 180', concentration 2.5)?
**A.** -3.43%

**Q.** What about the “% inhibition apPOL 180'” value (DRC-2, 180', concentration 5) of the same compound?
**A.** -6%

**Q.** What about the “% inhibition apPOL 180'” value (DRC-2, 180', concentration 10) of the same compound?
**A.** -1.09%

**Q.** And the “% inhibition apPOL 180'” value (DRC-2, 180', concentration 20)?
**A.** 9%

**Q.** And the “% inhibition apPOL 180'” value (DRC-2, 180', concentration 40)?
**A.** 26%

**Q.** And the “% inhibition apPOL 180'” value (DRC-2, 180', concentration 80)?
**A.** 42%

**Q.** And the “% inhibition ApPOL 90'” value (conc 10 (unit not given); 90'; DRC-2)?
**A.** 9%

**Q.** And the “% inhibition Apol 40'” value (conc 20 (unit not given); 40'; DRC-2)?
**A.** 26%

**Q.** What about the “% inhibition apPOL 180'” value (conc 20 (unit not given); 180'; DRC-2) of the same compound?
**A.** 9%

**Q.** And the “% inhibition Apol 40'” value (conc 40 (unit not given); 40'; DRC-2)?
**A.** 42%

**Q.** And the “% inhibition apPOL 180'” value (conc 40 (unit not given); 180'; DRC-2)?
**A.** 26%

**Q.** What about the “% inhibition apPOL 180'” value (conc 80 (unit not given); 180'; DRC-2) of the same compound?
**A.** 42%

**Q.** What about the “DNA Pol” value (primary screen hit value, DNA Pol (186 hits); 90 min, 10 µM) of the same compound?
**A.** 75
